According to patent publication US12383497B2, “Ready-to-use phenylephrine formulations and products” (INFORLIFE SA, priority 2023, dated 2025):
Counter-ions that a name gives are not always drawn.

Assay: Effect of autoclaving (terminal sterilization) on the product
Format: physicochemical
Protocol: Batches of the phenylephrine composition of the present disclosure formulated as in Table 1 were manufactured for the study of the effect of autoclaving on product behavior by autoclaving at a target temperature T=121° C.±1° C. and time at different FOs according to USP <1222>, which is incorporated fully herein by reference.
The table below show the Critical Quality Attributes of the drug product. The objective of this study was to evaluate the quality of the proposed manufacturing process to determine whether the manufacturing process will endure the desired final product study.
The table below show the results of the autoclaving study using several batches of the phenylephrine hydrochloride product formulation of the disclosure, containing 0.08 mg/ml of phenylephrine HCL.

- effect of terminal sterilization by autoclaving: caused degradation
Structure (SMILES): CNC[C@H](O)c1cccc(O)c1 [phenylephrine, benzene methanol, 3-hydroxy-α [(methyl amino)methyl]-hydrochloride (R)]
